What was measured:
[1] = target: T1, Mce1(1-210)p (Mus musculus, UniProt O55236); conditions: at 0.5 mM divalent cation; 50 mM Tris buffer; cited from earlier work
T1 construct: The N-terminal portion of Mce1p from residues 1-210 is an autonomous RNA triphosphatase domain; made in house; host or cells: bacteria
T1 sequence (O55236 1-210): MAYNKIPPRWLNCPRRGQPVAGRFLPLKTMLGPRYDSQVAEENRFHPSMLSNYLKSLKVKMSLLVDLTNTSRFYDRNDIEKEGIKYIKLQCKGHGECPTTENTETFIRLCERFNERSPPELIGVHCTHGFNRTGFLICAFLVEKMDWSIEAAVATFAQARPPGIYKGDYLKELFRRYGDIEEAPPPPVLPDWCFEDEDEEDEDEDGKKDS

[2] = target: T2, Hcm1p (Homo sapiens, UniProt O43148); experiment: Cap methyltransferase activity of recombinant Hcm1p, methylation of cap-labeled poly(A); assay type: biochemical
T2 construct: Δ120 retained 50% of the activity of full-length Hcm1p; His-tag (histidine-rich leader segment, pET16b) (N); made in house; host or cells: Escherichia coli BL21(DE3)

[3] = target: vaccinia triphosphatase (Vaccinia virus, UniProt P04298); conditions: reported value; read-out: Km for ATP; cited from earlier work
[4] = target: LEF-4 (Autographa californica nuclear polyhedrosis virus, UniProt P41477); conditions: reported value; read-out: Km for ATP; cited from earlier work
Sequence of LEF-4 (P41477 whole entry): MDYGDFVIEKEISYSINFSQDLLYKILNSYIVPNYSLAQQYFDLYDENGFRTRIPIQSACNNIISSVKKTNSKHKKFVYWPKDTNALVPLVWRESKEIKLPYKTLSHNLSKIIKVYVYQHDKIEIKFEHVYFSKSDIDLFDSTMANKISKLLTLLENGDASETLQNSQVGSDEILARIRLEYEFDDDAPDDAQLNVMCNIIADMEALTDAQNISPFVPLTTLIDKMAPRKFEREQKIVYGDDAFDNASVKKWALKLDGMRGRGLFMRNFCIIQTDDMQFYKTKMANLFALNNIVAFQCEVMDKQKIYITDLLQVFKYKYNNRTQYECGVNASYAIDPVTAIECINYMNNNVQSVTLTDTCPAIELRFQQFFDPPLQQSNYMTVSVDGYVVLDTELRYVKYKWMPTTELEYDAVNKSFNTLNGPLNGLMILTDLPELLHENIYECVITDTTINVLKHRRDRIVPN

T2 sequence (O43148 whole entry): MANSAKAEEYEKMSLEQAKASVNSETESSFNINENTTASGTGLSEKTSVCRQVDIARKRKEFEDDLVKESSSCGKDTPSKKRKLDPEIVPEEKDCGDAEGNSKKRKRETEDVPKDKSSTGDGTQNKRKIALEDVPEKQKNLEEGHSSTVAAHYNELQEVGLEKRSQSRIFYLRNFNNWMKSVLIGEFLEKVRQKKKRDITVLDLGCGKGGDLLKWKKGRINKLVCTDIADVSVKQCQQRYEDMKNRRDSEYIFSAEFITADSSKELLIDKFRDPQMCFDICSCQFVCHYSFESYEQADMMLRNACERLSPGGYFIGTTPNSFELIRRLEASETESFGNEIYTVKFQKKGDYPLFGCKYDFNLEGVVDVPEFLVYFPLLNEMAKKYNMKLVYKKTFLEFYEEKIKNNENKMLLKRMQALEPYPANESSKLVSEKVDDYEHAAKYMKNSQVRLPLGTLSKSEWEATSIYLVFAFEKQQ

In the case of [Cl-].[Cl-].[Mg+2] [MgCl2], the “inhibition of RNA triphosphatase activity” value [1] is given as 75% and the reduction of methylation ([2]; 1 mM magnesium) is given as “an order of magnitude”.

Work on C[S+](CC[C@H](N)C(=O)O)C[C@H]1O[C@@H](n2cnc3c(N)ncnc32)[C@H](O)[C@@H]1O (stereo partly shown) [AdoMet, S-adenosylmethionine] yielded a Km ([2]; read-out: AdoMet concentration giving half-maximal activity, cap methylation as a function of AdoMet concentration) of roughly 25 µM.

In the case of Nc1ncnc2c1ncn2[C@@H]1O[C@H](COP(=O)(O)OP(=O)(O)OP(=O)(O)O)[C@@H](O)[C@H]1O [ATP], the Km [3] is listed as 800 µM and the Km [4] is listed as 43 µM.

For [Cl][Mn][Cl] [MnCl2], the “inhibition of RNA triphosphatase activity” value [1] is given as 75%.

With Nc1ncnc2c1ncn2[C@@H]1O[C@H](CSCC[C@H](N)C(=O)O)[C@@H](O)[C@H]1O [AdoHcy, S-adenosylhomocysteine] the “effect on cap methylation in the presence of AdoMet” value ([2]; 500 μM AdoHcy plus 50 μM AdoMet (FIG. 9, lane 4)) was “partially inhibitory”.

From US6232070A, “Pharmacological targeting of mRNA cap formation” (priority 1999, dated 2001)
